According to patent US12029751B2, “Therapeutic agent for nervous system disease” (OSAKA UNIVERSITY, priority 2017, dated 2024):

Experiments:
[1] = test system: tMCAO model C57BL/6J mice; test: Brain ischemic lesion volume by TTC staining in transient middle cerebral artery occlusion (tMCAO) model; type: in vivo, mouse; details: 2 days after tMCAO surgery
Excerpt: Eight- to 9-week-old male C57BL/6J mice (about 24 g) were used. A probe for a laser Doppler blood flow meter was placed on the right skull such that blood flow in the middle cerebral artery could be monitored. The right cervical region was cut and opened, and the external carotid artery was ligated. Then, the common carotid artery was cut, and a nylon thread was inserted into the common carotid artery, and the tip was advanced while the blood flow was checked using a blood flow monitor. When the tip reached the bifurcation of the middle cerebral artery and a decrease in blood flow was observed, this state was held for 1 hour at a rectal temperature of 37° C. Then, the nylon thread was removed, and the common carotid artery was ligated. In order to administer methylcobalamin continuously, an osmotic minipump was placed and left in the dorsal subcutaneous space. […]
At 2 days after the surgery, the mouse (Example 4-1) was sacrificed, and the cerebrum was excised. […] Images were obtained by a stereoscopic microscope, the ischemic lesion area in each slice was calculated, and all ischemic lesion areas of the cerebrum slices were summed up to calculate an ischemic lesion volume. The ischemic lesion area in each slice was calculated by the following formula: Area of unaffected hemisphere—area of affected side intact portion.

[2] = test system: cerebral cortical neurons; test: TUNEL assay, apoptosis inhibiting effect on cerebral cortical neurons; type: cell-based, rat; details: after 18 hours
Excerpt: (§1) Cerebral cortical neurons were collected and cultured by a conventional method. Cerebral cortex was dissected from a fetus of a Sprague-Dawley (SD) rat (18th day of pregnancy) and recovered in ice-cooled Dulbecco's Modified Eagle Medium (DMEM) containing 10% fetal bovine serum (FBS) and 1% penicillin/streptomycin. The pia mater and blood vessels were removed, and the remaining cerebral cortex was transferred to DMEM (containing 1% penicillin/streptomycin and no FBS) and cut into small pieces having a size of 1 mm by surgical scissors. Papain (final concentration, 2 mg/ml) was added to the cell mixture, and the mixture was allowed to react at 37° C. for 30 minutes. DNase I (70 U/ml) was added to the reaction mixture and reaction was carried out for 30 seconds. Then, DMEM containing 10% FBS and 1% penicillin/streptomycin was added to terminate the reaction. The cell mixture was centrifuged at 800 rpm, the residue was re-suspended in DMEM containing 10% FBS and 1% penicillin/streptomycin, and the suspension was seeded on a dish coated with poly-L lysine (PLL). At 4 hours after the cell seeding, the medium was replaced with Neurobasal medium (containing 10% B27 supplement and 1% penicillin/streptomycin).
To the cerebral cortical neurons (Example 1-1) cultured on a PLL-coated 8-well chamber slide, 20 mM glutamic acid and […] methylcobalamin (MeCbl) were added. After 18 hours, the proportion of apoptotic cells was evaluated using Promega's DeadEnd Fluorometric TUNEL System. Cells were fixed with 4% paraformaldehyde (PFA) at 4° C. for 25 minutes. After cells were permeabilized with 0.2% Triton X-100 for 5 minutes, an incubation buffer was added, and the mixture was left stand at 37° C. with light shielding for 60 minutes to label the permeabilized cells. The nuclei were labeled with 4′6-diamidino-2-phenylindole (DAPI). The total cell number and the number of TUNEL-positive cells were determined.

[3] = test system: cerebral cortical neurons; test: LDH assay, necrosis inhibiting effect under oxygen-glucose deprivation (OGD) stress; type: cell-based, rat; details: 10 μM methylcobalamin 30 minutes before OGD stress (3 hours), measured after 24 hours
Excerpt: as §1, with “The cell mixture was centrifuged at 800 rpm, the residue was re-suspended in DMEM containing 10% FBS and 1% penicillin/streptomycin, and the suspension was seeded on a dish coated with poly-L lysine (PLL). At 4 hours after the cell seeding, the medium was replaced with Neurobasal medium (containing 10% B27 supplement and 1% penicillin/streptomycin).” left out
To the cerebral cortical neurons (Example 1-1) cultured on a PLL-coated 6-well chamber slide, 10 μM methylcobalamin was added at 30 minutes before exposure to oxygen-glucose deprivation (OGD) stress. […] After 24 hours, the supernatant was collected, and LDH activity was measured using Cytotoxicity Detection Kit^PLUS (SIGMA). LDH activities of the control group and the methylcobalamin addition group were calculated as proportions (%) with respect to the LDH activity of the high control.

Which results are given for C/C1=C2/[N-][C@H]([C@H](CC(N)=O)[C@@]2(C)CCC(=O)NC[C@@H](C)OP(=O)([O-])O[C@H]2[C@@H](O)[C@@H](n3cnc4cc(C)c(C)cc43)O[C@@H]2CO)[C@]2(C)N=C(/C(C)=C3N=C(/C=C4N=C1[C@@H](CCC(N)=O)C\4(C)C)[C@@H](CCC(N)=O)[C@]\3(C)CC(N)=O)[C@@H](CCC(N)=O)[C@]2(C)CC(N)=O.[CH3-].[Co+3] [MeCbl, methylcobalamin]?
ischemic lesion volume ([1]; 1 mg/kg/day continuous, osmotic minipump): 28.8; reduction of ischemic lesion volume as compared with the control group ([1]; 1 mg/kg/day): about ½; proportion of apoptotic cells ([2]; 20 mM glutamic acid + methylcobalamin): 5.6%; proportion of apoptotic cells ([2]; 20 mM glutamic acid + methylcobalamin, listed as methylcobalamin): significantly decreased to the level of the control; proportion of apoptotic cells ([2]; MeCbl alone (Glutamate −), methylcobalamin): 5.9%; LDH activity as proportion with respect to the high control [3]: 1.3%; LDH activity as proportion with respect to the high control ([3]; listed as methylcobalamin): significantly decreased
